In ChEMBL document CHEMBL1201862, “PubChem BioAssay data set” (2004):
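In this assay, cells in 96-well plates receive the compound at five concentrations for 48 hours. Endpoints are linearly interpolated between the surrounding concentrations. GI50 is the concentration that inhibits growth by half.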 Active and inactive are the calls of the source. No stated cut-off is given here; in the data, active = GI50 up to about 1.1 µM and inactive = higher.

What was measured:
Test in all cases: NCI-60 cell line screen, 48 h
786-0 = test system: 786-0
A498 = test system: A498
ACHN = test system: ACHN
CAKI-1 = test system: CAKI-1
CCRF-CEM = test system: CCRF-CEM
COLO 205 = test system: COLO 205
DLD-1 = test system: DLD-1
DMS-114 = test system: DMS-114
DMS-273 = test system: DMS-273
HCC 2998 = test system: HCC 2998
HCT-116 = test system: HCT-116
HCT-15 = test system: HCT-15
HL-60 = test system: HL-60
HOP-62 = test system: HOP-62
HOP-92 = test system: HOP-92
IGROV-1 = test system: IGROV-1
K562 = test system: K562
LXFL 529 = test system: LXFL 529
M14 = test system: M14
M19-MEL = test system: M19-MEL
MOLT-4 = test system: MOLT-4
Malme-3M = test system: Malme-3M
NCI-H226 = test system: NCI-H226
NCI-H23 = test system: NCI-H23
NCI-H460 = test system: NCI-H460
NCI-H522 = test system: NCI-H522
OVCAR-4 = test system: OVCAR-4
RPMI-8226 = test system: RPMI-8226
RXF 631 = test system: RXF 631
SF-268 = test system: SF-268
SF-539 = test system: SF-539
SK-MEL-28 = test system: SK-MEL-28
SK-MEL-2 = test system: SK-MEL-2
SK-OV-3 = test system: SK-OV-3
SN12C = test system: SN12C
SNB-75 = test system: SNB-75
SR = test system: SR
UACC-62 = test system: UACC-62
UO-31 = test system: UO-31
XF498 = test system: XF498
A549 = test system: A549
EKVX = test system: EKVX
HT-29 = test system: HT-29
KM-20L2 = test system: KM-20L2
KM12 = test system: KM12
LOX IMVI = test system: LOX IMVI
OVCAR-3 = test system: OVCAR-3
OVCAR-5 = test system: OVCAR-5
OVCAR-8 = test system: OVCAR-8
SF-295 = test system: SF-295
SK-MEL-5 = test system: SK-MEL-5
SNB-19 = test system: SNB-19
SNB-78 = test system: SNB-78
SW-620 = test system: SW-620
TK-10 = test system: TK-10
U-251 = test system: U-251
UACC-257 = test system: UACC-257

Measured: GI50

Cc1[nH]c(=O)nc(N(CCO)/N=C/c2ccccc2Cl)c1C(=O)Nc1cc(Cl)cc(Cl)c1
> 100 µM: HCT-15
inactive: 786-0 20.1 µM | A498 24.6 µM | ACHN 29.2 µM | CAKI-1 45.4 µM | CCRF-CEM 64.1 µM | COLO 205 > 100 µM | DLD-1 53.1 µM | DMS-114 41.2 µM | DMS-273 43.8 µM | HCC 2998 86.5 µM | HCT-116 23 µM | HL-60 > 100 µM | HOP-62 26.5 µM | HOP-92 23.9 µM | IGROV-1 > 100 µM | K562 37.3 µM | LXFL 529 35.2 µM | M14 67.3 µM | M19-MEL > 100 µM | MOLT-4 77.3 µM | Malme-3M > 10 µM | NCI-H226 23.1 µM | NCI-H23 34.9 µM | NCI-H460 27.9 µM | NCI-H522 23.1 µM | OVCAR-4 31.6 µM | RPMI-8226 40.2 µM | RXF 631 29.2 µM | SF-268 31.8 µM | SF-539 24.5 µM | SK-MEL-28 36.1 µM | SK-MEL-2 48.9 µM | SK-OV-3 20.4 µM | SN12C 43.7 µM | SNB-75 17.7 µM | SR 46.1 µM | UACC-62 > 100 µM | UO-31 43.4 µM | XF498 > 100 µM

Cc1cc2c(C=O)n[nH]c2c(C#N)c1C
32.4 µM: HCT-15
inactive: 786-0 > 100 µM | A498 29.2 µM | A549 > 100 µM | ACHN 63.5 µM | CCRF-CEM > 100 µM | COLO 205 > 100 µM | DLD-1 > 100 µM | DMS-114 26.5 µM | DMS-273 43.1 µM | EKVX > 100 µM | HCC 2998 > 100 µM | HCT-116 30.4 µM | HOP-62 > 100 µM | HOP-92 31.3 µM | HT-29 53.6 µM | IGROV-1 67 µM | K562 > 100 µM | KM-20L2 65.9 µM | KM12 34.7 µM | LOX IMVI 39.4 µM | LXFL 529 34.7 µM | M14 35.9 µM | M19-MEL 60.8 µM | MOLT-4 > 100 µM | Malme-3M > 100 µM | NCI-H23 29.6 µM | NCI-H460 46.6 µM | NCI-H522 10.4 µM | OVCAR-3 48 µM | OVCAR-4 29.2 µM | OVCAR-5 > 100 µM | OVCAR-8 43 µM | RPMI-8226 > 100 µM | RXF 631 58.5 µM | SF-268 31.9 µM | SF-295 44.1 µM | SF-539 27.7 µM | SK-MEL-28 48.4 µM | SK-MEL-2 > 100 µM | SK-MEL-5 32.6 µM | SK-OV-3 > 100 µM | SN12C 29.3 µM | SNB-19 > 100 µM | SNB-75 7.43 µM | SNB-78 95.3 µM | SW-620 40.6 µM | TK-10 > 100 µM | U-251 60.3 µM | UACC-257 43.5 µM | UACC-62 43.3 µM | UO-31 34.5 µM
